From article PMC4113814, “Bioactive Cembrane Derivatives from the Indian Ocean Soft Coral, Sinularia kavarattiensis” (Marine Drugs, 2014)
≈ marks a conversion by molar mass, not a printed value.

How the values were obtained:
Assay type in all cases: cell-based, Wistar rats
[1] = system: IL-1β; test: IL-1β release in supernatants of LPS-treated primary microglial cells (ELISA); conditions: 72 h; for IL-1β release: LPS-treated; for IC50: Rattus norvegicus, inhibition of LPS-induced cytokine release, read-out: IL-1β IC50
Procedure: (§1) Primary microglial cell cultures were prepared from brains of newborn Wistar rats. Ethics approval for the experiments was granted by the EBIOTEC Review Board (Valter Lombardi, Iván Carrera and Lucía Fernández-Novoa; Project Identification Code: Sinularia Project October 2013; approved 30 October 2013). The neocortex of one-day-old postnatal rats was aseptically dissected out, and the meninges and blood vessels were carefully removed. Following cutting in a medium containing 20% horse serum, the suspension was filtered through a […] and transferred as a single cell suspension to culture dishes, using 5.0 mL of medium per dish. The cultures were incubated at 37 °C in an atmosphere containing 5% CO2. The culture medium consisted of Minimum Essential Medium Eagle, supplemented with L-glutamine, amino acids, vitamins, penicillin, gentamicin, sodium bicarbonate and 20% heat-inactivated horse serum. The medium was changed twice a week. After 1 week, the concentration of horse serum was reduced to 10%. After sixteen days in culture, cells were treated with 1 μg/mL of lipopolysaccharide (LPS). […] Positive controls were treated only with LPS, while negative controls were treated with complete medium. After 72 h of incubation, cells were counted, and 2.5 mL of the supernatants were collected from each well and frozen at −40 °C for cytokine analyses. All experiments were carried out twice.
(§2) The supernatants obtained from cell cultures were analyzed for TNF-α, IL-1β, IL-4, IL-6, IL-8, IL-10 and IL-18 using commercially available ELISA kits following the manufacturers’ instructions. All samples were assayed in duplicate, and equivocal results were repeated. The cytokine concentration was calculated from a standard curve of the corresponding recombinant cytokine.
(§3) The cytotoxicity of the compounds was measured by the colorimetric methyl thiazol tetrazolium (MTT) assay and scored as a percentage of the absorbance reduction of treated cultures versus untreated control cultures. Primary microglial cell cultures were seeded into 96-well microplates at 10^4 cells per well and allowed to grow for 24 h. […] The compounds were serially diluted in complete culture medium with two-fold dilutions (100, 50, 25, 12.5, 6.25, 3.12 and 1.56 μg/mL for in vitro cytotoxicity; 12.5, 6.25, 3.12, 1.56, 0.78 and 0.39 μg/mL for cytokine release). Different concentrations of the compounds were added to each well, and Tamoxifen was used as a positive control, with concentrations ranging from 50 to 1.56 μg/mL. Plates were incubated at 37 °C for 72 h under 5% CO2 atmosphere. Then, the 50 μL of MTT-PBS solution in culture medium were added to each well. The plates were further incubated for 4 h under the same conditions. The medium was then removed and replaced with 200 μL of DMSO to solubilize the MTT formazan product. The solutions were shaken for 20 min, and the absorbance was measured at 570 nm. […] Each value represents the mean of triplicate determinations. The IC50 values were calculated from the compound concentration-response curves.

[2] = system: IL-8; test: IL-8 release in supernatants of LPS-treated primary microglial cells (ELISA); conditions: 72 h; for IL-8 release: LPS-treated; for IC50: Rattus norvegicus, inhibition of LPS-induced cytokine release, read-out: IL-8 IC50
Procedure: as §1, §2, §3

[3] = system: IL-18; test: IL-18 release in supernatants of LPS-treated primary microglial cells (ELISA); conditions: 72 h; for IL-18 release: LPS-treated; for IC50: Rattus norvegicus, inhibition of LPS-induced cytokine release, read-out: IL-18 IC50
Procedure: as §1, §2
as §3, with “The compounds were serially diluted in complete culture medium with two-fold dilutions (100, 50, 25, 12.5, 6.25, 3.12 and 1.56 μg/mL for in vitro cytotoxicity; 12.5, 6.25, 3.12, 1.56, 0.78 and 0.39 μg/mL for cytokine release).” left out

[4] = MTT cytotoxicity assay on primary microglial cell cultures; conditions: Wistar, rat, mean of triplicate
Procedure: Primary microglial cell cultures were prepared from brains of newborn Wistar rats. Ethics approval for the experiments was granted by the EBIOTEC Review Board (Valter Lombardi, Iván Carrera and Lucía Fernández-Novoa; Project Identification Code: Sinularia Project October 2013; approved 30 October 2013). The neocortex of one-day-old postnatal rats was aseptically dissected out, and the meninges and blood vessels were carefully removed. Following cutting in a medium containing 20% horse serum, the suspension was filtered through a […] and transferred as a single cell suspension to culture dishes, using 5.0 mL of medium per dish. The cultures were incubated at 37 °C in an atmosphere containing 5% CO2. The culture medium consisted of Minimum Essential Medium Eagle, supplemented with L-glutamine, amino acids, vitamins, penicillin, gentamicin, sodium bicarbonate and 20% heat-inactivated horse serum. The medium was changed twice a week. After 1 week, the concentration of horse serum was reduced to 10%. After sixteen days in culture, cells were treated with 1 μg/mL of lipopolysaccharide (LPS). After six hours, different concentrations (1.0 μg/mL, 2.5 μg/mL and 5.0 μg/mL) of Compounds 1–4 and 6 were added to each well, and plates were incubated for 72 h at 37 °C in an atmosphere containing 5% CO2. Positive controls were treated only with LPS, while negative controls were treated with complete medium. After 72 h of incubation, cells were counted, and 2.5 mL of the supernatants were collected from each well and frozen at −40 °C for cytokine analyses. All experiments were carried out twice.
The cytotoxicity of the compounds was measured by the colorimetric methyl thiazol tetrazolium (MTT) assay and scored as a percentage of the absorbance reduction of treated cultures versus untreated control cultures. Primary microglial cell cultures were seeded into 96-well microplates at 10^4 cells per well and allowed to grow for 24 h. The initial concentration of Compounds 1–4 and 6 was 100 μg/mL in DMSO. The compounds were serially diluted in complete culture medium with two-fold dilutions (100, 50, 25, 12.5, 6.25, 3.12 and 1.56 μg/mL for in vitro cytotoxicity; 12.5, 6.25, 3.12, 1.56, 0.78 and 0.39 μg/mL for cytokine release). Different concentrations of the compounds were added to each well, and Tamoxifen was used as a positive control, with concentrations ranging from 50 to 1.56 μg/mL. Plates were incubated at 37 °C for 72 h under 5% CO2 atmosphere. Then, the 50 μL of MTT-PBS solution in culture medium were added to each well. The plates were further incubated for 4 h under the same conditions. The medium was then removed and replaced with 200 μL of DMSO to solubilize the MTT formazan product. The solutions were shaken for 20 min, and the absorbance was measured at 570 nm. […] Each value represents the mean of triplicate determinations. The IC50 values were calculated from the compound concentration-response curves.

Structure (SMILES)	IL-1β release ([1]; C1: 1.0 μg/mL)	IL-1β release ([1]; C2: 2.5 μg/mL)	IL-1β release ([1]; C3: 5.0 μg/mL)	IC50 [1]	IL-8 release ([2]; C1: 1.0 μg/mL)	IL-8 release ([2]; C2: 2.5 μg/mL)	IL-8 release ([2]; C3: 5.0 μg/mL)	IC50 [2]	IL-18 release ([3]; C1: 1.0 μg/mL)	IL-18 release ([3]; C2: 2.5 μg/mL)	IL-18 release ([3]; C3: 5.0 μg/mL)	IC50 [3]	IC50 at 72 h [4]
C=C(C)[C@@H]1C/C=C2\C(=O)O[C@@H](C[C@]3(C)CC(=O)[C@H](CC(=O)C1)O3)[C@@H]2O [Compound 1, 5-epi-sinuleptolide]	1.04 ± 0.08 pg/mL	1.09 ± 0.1 pg/mL	1.08 ± 0.05 pg/mL	> 12.5 µg/mL	256 ± 12 pg/mL	239 ± 5 pg/mL	241 ± 7 pg/mL	> 12.5 µg/mL	319 ± 8.1 pg/mL	318 ± 7.5 pg/mL	315 ± 8.1 pg/mL	> 12.5 µg/mL	> 100 µg/mL
C=C(C)[C@@H]1C/C=C2\C(=O)O[C@@H](C[C@]3(C)CC(=O)[C@@H](CC(=O)C1)O3)[C@@H]2O [Compound 2, sinuleptolide]	1.08 ± 0.02 pg/mL	0.07 ± 0.04 pg/mL	0.08 ± 0.06 pg/mL	0.5 µg/mL (≈ 1.44 µM)	249 ± 13 pg/mL	123 ± 11 pg/mL	108 ± 9 pg/mL	2.3 µg/mL (≈ 6.6 µM)	326 ± 4.9 pg/mL	187 ± 14 pg/mL	155 ± 11 pg/mL	2.9 µg/mL (≈ 8.32 µM)	> 100 µg/mL
C=C(C)C1CCC23OC2C(CC2(C)CC(=O)C(CC(=O)C1)O2)OC3=O (stereo not shown) [Compound 3, scabrolide D]	1.1 ± 0.05 pg/mL	1.3 ± 0.06 pg/mL	1.2 ± 0.05 pg/mL	> 12.5 µg/mL	247 ± 8 pg/mL	237 ± 4 pg/mL	244 ± 11 pg/mL	> 12.5 µg/mL	312 ± 8.2 pg/mL	321 ± 7.8 pg/mL	318 ± 7.6 pg/mL	> 12.5 µg/mL	> 100 µg/mL
C=C(C)[C@@H]1CC(=O)[C@H]2[C@H](C1)[C@@H]1C(=O)O[C@@H]3C[C@@]4(C)O[C@H]2C(=O)[C@@H]4[C@H]13 [Compound 6, ineleganolide]	1.07 ± 0.07 pg/mL	1.1 ± 0.05 pg/mL	1.09 ± 0.02 pg/mL	> 12.5 µg/mL	247 ± 8 pg/mL	247 ± 8 pg/mL	247 ± 8 pg/mL	> 12.5 µg/mL	312 ± 8.2 pg/mL	312 ± 8.2 pg/mL	312 ± 8.2 pg/mL	> 12.5 µg/mL	> 100 µg/mL
